Assay results published in ChEMBL document CHEMBL1821577, “Discovery of GSK1997132B a novel centrally penetrant benzimidazole PPARγ partial agonist” (Bioorg Med Chem Lett, 2011).
In brackets after ≈: the same amount, converted by molar mass.

Assays:
[1] = molecular target: T1, Peroxisome proliferator-activated receptor gamma (Homo sapiens, UniProt P37231); experiment: Partial agonist activity at human PPARgamma by luciferase reporter gene assay; assay type: functional
T1 sequence (P37231 whole entry): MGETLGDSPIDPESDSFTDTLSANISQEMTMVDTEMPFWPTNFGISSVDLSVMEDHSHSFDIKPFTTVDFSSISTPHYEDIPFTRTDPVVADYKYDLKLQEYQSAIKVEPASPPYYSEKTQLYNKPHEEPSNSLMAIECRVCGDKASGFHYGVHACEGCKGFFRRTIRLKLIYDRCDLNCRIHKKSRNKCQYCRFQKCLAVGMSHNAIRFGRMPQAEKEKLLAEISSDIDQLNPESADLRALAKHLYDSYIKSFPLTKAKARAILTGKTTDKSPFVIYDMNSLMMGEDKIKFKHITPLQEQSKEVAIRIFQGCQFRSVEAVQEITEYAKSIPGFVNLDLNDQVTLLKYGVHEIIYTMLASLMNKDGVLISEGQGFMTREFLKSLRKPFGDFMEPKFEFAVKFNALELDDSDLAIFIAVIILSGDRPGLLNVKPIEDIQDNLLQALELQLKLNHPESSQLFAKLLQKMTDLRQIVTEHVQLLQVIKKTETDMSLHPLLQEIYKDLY

[2] = molecular target: T2, Peroxisome proliferator-activated receptor gamma (Homo sapiens) (UniProt P37231); experiment: Activity at human PPARgamma by luciferase reporter gene assay; design: concentration or dose not given beside the values
T2 sequence (whole entry): T1 sequence (P37231 whole entry)

Mus musculus = experiment: Blood clearance in mouse at 1 mg/kg, iv; assay type: ADME, organism-based; design: dose 1 mg/kg, route intravenous; settings: in vivo
Liver [3] = experiment: Intrinsic clearance in mouse liver microsome; assay type: ADME; settings: microsomes
Liver microsomes [4] = experiment: Intrinsic clearance in human liver microsome; assay type: ADME
[5] = molecular target: T3, Peroxisome proliferator-activated receptor delta (Homo sapiens, UniProt Q03181); experiment: Partial agonist activity at PPARdelta by luciferase reporter gene assay; assay type: functional
T3 sequence (Q03181 whole entry): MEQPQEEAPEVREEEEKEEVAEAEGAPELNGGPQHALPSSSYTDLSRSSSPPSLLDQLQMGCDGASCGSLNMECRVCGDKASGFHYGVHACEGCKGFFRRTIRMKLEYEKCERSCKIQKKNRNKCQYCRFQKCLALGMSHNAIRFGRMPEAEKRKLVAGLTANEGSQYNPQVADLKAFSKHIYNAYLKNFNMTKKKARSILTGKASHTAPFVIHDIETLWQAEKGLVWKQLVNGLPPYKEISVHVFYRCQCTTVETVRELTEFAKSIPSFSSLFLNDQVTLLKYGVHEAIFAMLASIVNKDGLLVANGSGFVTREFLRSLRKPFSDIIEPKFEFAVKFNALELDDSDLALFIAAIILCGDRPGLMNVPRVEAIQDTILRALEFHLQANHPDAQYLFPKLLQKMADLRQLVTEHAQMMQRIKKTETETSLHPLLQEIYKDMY

[6] = molecular target: T4, Peroxisome proliferator-activated receptor alpha (Homo sapiens, UniProt Q07869); experiment: Partial agonist activity at PPARalpha by luciferase reporter gene assay; assay type: functional
T4 sequence (Q07869 whole entry): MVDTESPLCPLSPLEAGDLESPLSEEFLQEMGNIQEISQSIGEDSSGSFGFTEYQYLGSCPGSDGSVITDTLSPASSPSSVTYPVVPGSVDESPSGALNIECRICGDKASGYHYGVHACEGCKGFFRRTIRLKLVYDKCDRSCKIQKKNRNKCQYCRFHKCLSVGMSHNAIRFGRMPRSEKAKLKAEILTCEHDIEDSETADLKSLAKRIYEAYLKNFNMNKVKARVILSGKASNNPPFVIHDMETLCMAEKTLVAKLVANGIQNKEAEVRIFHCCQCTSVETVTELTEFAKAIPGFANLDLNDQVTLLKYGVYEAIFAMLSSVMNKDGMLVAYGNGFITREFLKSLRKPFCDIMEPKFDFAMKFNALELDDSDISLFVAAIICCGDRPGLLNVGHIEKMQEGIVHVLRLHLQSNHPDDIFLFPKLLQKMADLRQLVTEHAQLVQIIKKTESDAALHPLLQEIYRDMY

Liver microsomes [7] = experiment: Intrinsic clearance in rat liver microsome; assay type: ADME
[8] = Solubility of the compound in fasted state simulated intestinal fluid after 0.5 hrs; assay type: physicochemical
[9] = Fraction unbound in rat blood; assay type: ADME, tissue-based
Cytochrome P450 1A2 = molecular target: T5, Cytochrome P450 1A2 (Homo sapiens, UniProt P05177); experiment: Inhibition of CYP1A2; assay type: ADME
T5 sequence (P05177 whole entry): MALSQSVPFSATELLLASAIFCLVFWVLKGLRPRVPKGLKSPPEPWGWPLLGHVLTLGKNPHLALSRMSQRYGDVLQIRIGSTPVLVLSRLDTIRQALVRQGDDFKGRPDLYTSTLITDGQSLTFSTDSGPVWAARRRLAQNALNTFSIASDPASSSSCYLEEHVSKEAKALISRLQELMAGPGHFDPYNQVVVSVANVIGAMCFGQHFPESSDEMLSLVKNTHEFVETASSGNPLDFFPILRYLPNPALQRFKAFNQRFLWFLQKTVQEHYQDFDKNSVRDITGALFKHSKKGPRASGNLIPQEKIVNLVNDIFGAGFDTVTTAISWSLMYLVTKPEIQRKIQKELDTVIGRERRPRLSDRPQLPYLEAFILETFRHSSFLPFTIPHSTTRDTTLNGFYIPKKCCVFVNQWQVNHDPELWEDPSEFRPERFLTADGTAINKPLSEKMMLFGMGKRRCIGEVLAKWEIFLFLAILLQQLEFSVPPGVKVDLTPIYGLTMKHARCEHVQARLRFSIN

[10] = Fraction unbound in rat brain; assay type: ADME, tissue-based
[11] = Ratio of drug uptake in brain to blood at steady state in rat at 2 mg/kg/h, iv; assay type: ADME, organism-based; design: route intravenous
[12] = Solubility of the compound in water after 0.5 hrs; assay type: physicochemical
Brain [13] = experiment: Drug uptake in rat brain at steady state at 2 mg/kg/h, iv; assay type: ADME, organism-based; design: route intravenous; settings: in vivo, read-out: Drug uptake
Cytochrome P450 3A4 [14] = molecular target: T6, Cytochrome P450 3A4 (Homo sapiens, UniProt P08684); experiment: Inhibition of CYP3A4 using 7-benzyloxyquinoline as substrate; assay type: ADME
Rattus norvegicus = experiment: Blood clearance at steady state in rat at 2 mg/kg/h, iv; assay type: ADME, organism-based; design: route intravenous; settings: in vivo
Brain [15] = experiment: Free drug level rat brain at 1 mg/kg, iv; assay type: ADME, organism-based; design: dose 1 mg/kg, route intravenous; settings: in vivo
Cytochrome P450 2D6 = Cytochrome P450 2D6 (Homo sapiens, UniProt P10635); experiment: Inhibition of CYP2D6; assay type: ADME
Cytochrome P450 3A4 [16] = molecular target: T6, Cytochrome P450 3A4; experiment: Inhibition of CYP3A4 using DEF substrate; assay type: ADME
[17] = Solubility of the compound in fed state simulated intestinal fluid after 0.5 hrs; assay type: physicochemical
P-gp (human MDR1) [18] = experiment: Permeability of the compound from apical to basolateral direction in dog MDCK2 expressing human MDR1 cells by PGP assay; assay type: ADME, cell-based, Canis lupus familiaris, MDCK-II; settings: MDCK-MDR1, read-out: permeability
Cytochrome P450 2C9 = Cytochrome P450 2C9 (Homo sapiens, UniProt P11712); experiment: Inhibition of CYP2C9; assay type: ADME
Liver [19] = experiment: Intrinsic clearance in rat liver S9 fraction; assay type: ADME, subcellular
[20] = Solubility of the compound in simulated gastric fluid after 0.5 hrs; assay type: physicochemical
Cytochrome P450 2C19 = Cytochrome P450 2C19 (Homo sapiens, UniProt P33261); experiment: Inhibition of CYP2C19; assay type: ADME
P-gp (human MDR1) [21] = experiment: Efflux ratio of permeability in dog MDCK2 expressing human MDR1 cells by PGP assay; assay type: ADME, cell-based, Canis lupus familiaris, MDCK-II; settings: MDCK-MDR1

T6 sequence (P08684 whole entry): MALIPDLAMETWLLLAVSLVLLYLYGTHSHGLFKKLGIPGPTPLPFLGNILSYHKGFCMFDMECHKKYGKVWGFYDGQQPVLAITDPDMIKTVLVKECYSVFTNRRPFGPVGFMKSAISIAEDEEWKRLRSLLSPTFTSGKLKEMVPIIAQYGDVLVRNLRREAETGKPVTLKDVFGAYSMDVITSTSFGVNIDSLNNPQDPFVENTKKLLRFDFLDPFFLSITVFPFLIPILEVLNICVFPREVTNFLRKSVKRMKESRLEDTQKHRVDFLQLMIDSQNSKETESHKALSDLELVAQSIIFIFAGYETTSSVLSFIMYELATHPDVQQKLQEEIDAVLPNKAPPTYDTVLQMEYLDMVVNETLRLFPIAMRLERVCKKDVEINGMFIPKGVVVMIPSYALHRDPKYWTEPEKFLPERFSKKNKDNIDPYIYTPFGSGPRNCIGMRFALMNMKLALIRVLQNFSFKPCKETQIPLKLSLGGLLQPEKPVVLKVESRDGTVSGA
Cytochrome P450 2D6, sequence (P10635 whole entry): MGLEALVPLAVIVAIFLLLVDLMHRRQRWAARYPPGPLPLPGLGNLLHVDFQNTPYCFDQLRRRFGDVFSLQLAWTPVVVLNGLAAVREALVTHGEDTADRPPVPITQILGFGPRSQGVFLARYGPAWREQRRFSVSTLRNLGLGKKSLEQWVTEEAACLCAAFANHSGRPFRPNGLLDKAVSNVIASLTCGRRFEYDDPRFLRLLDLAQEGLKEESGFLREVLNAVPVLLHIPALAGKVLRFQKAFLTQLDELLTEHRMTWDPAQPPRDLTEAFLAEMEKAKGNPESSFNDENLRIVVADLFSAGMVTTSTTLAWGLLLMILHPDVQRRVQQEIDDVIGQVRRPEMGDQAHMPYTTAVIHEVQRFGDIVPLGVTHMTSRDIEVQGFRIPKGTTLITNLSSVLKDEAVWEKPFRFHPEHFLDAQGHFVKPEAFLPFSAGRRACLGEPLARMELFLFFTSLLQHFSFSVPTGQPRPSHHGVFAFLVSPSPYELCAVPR
Cytochrome P450 2C19, sequence (P33261 whole entry): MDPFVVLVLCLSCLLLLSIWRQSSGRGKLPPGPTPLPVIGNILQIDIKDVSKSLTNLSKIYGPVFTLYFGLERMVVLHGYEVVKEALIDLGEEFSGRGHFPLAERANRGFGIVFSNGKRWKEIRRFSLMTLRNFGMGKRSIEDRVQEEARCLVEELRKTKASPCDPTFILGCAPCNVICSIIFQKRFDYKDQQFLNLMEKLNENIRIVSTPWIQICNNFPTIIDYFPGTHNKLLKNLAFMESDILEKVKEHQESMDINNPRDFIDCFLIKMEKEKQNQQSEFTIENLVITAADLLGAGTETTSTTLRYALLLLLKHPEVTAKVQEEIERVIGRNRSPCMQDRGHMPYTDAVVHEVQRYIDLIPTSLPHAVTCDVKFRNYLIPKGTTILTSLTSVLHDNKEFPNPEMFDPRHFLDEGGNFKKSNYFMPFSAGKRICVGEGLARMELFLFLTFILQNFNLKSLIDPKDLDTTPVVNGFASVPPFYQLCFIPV
Cytochrome P450 2C9, sequence (P11712 whole entry): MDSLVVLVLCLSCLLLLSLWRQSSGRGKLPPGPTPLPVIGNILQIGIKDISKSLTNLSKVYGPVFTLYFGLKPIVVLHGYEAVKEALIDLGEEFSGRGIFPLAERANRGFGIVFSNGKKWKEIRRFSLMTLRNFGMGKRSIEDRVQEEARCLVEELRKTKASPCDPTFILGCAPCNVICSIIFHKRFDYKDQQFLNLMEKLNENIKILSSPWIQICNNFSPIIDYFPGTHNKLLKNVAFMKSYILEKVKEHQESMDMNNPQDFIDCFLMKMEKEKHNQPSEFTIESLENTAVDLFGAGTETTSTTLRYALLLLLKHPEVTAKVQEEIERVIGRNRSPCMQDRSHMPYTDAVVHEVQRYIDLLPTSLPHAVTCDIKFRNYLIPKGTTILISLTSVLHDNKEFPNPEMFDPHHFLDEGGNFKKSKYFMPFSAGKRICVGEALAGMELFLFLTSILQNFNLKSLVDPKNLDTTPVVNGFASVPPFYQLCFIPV

SMILES: CCc1nc2cc(C(=O)N[C@H](CC)c3ccccc3)ccc2n1Cc1ccc(Cl)c(Cl)c1
- EC50 [1]: 200 nM
- Activity [2]: 65%

SMILES: Cc1nc2cc(C(=O)NCc3ccccc3)ccc2n1Cc1ccc(Cl)c(Cl)c1
- EC50 [1]: 398 nM
- Activity [2]: 83%

SMILES: CC[C@@H](NC(=O)c1ccc2c(c1)nc(C)n2Cc1ccc(C(N)=O)cc1)c1ccccc1
- EC50 [1]: 10000 nM
- Activity [2]: 17%

SMILES: CC[C@@H](NC(=O)c1ccc2c(c1)nc(C)n2Cc1ccc(Cl)cc1)c1ccccc1
- EC50 [1]: 31.6 nM
- Activity [2]: 66%

SMILES: CC[C@@H](NC(=O)c1ccc2c(c1)ncn2Cc1ncc(Cl)cc1Cl)c1ccccc1
- EC50 [1]: 0.501 nM
- Activity [2]: 76%

SMILES: CCC(NC(=O)c1ccc2c(c1)nc(C)n2Cc1ccc(Cl)c(Cl)c1)c1ccccc1 (centres undefined)
- clearance (Mus musculus): 736 mL/min/kg
- CL (Liver [3]): 1.75 mL/min/g
- CL (Liver microsomes [4]): 0.5 mL/min/g
- EC50 [5]: > 10 µM
- EC50 [1]: 50.1 nM
- Activity [2]: 64%
- EC50 [6]: > 10 µM
- CL (Liver microsomes [7]): 2.5 mL/min/g

SMILES: CC[C@@H](NC(=O)c1ccc2c(c1)ncn2Cc1ncc(F)cc1F)c1ccccc1
- solubility at 0.5 h [8]: 80 µg/mL (≈ 197 µM)
- fraction unbound [9]: 0.175
- IC50 (Cytochrome P450 1A2): 14 µM
- fraction unbound [10]: 0.115
- CL (Liver microsomes [4]): 0.5 mL/min/g
- Kp [11]: 0.22
- EC50 [1]: 10 nM
- solubility at 0.5 h [12]: 330 µg/mL (≈ 812 µM)
- concentration (Brain [13]): 446 nM
- Activity [2]: 68%
- IC50 (Cytochrome P450 3A4 [14]): > 100 µM
- clearance (Rattus norvegicus): 30 mL/min/kg
- Drug uptake (Brain [15]): 51 nM
- IC50 (Cytochrome P450 2D6): 65 µM
- IC50 (Cytochrome P450 3A4 [16]): 45 µM
- solubility at 0.5 h [17]: 220 µg/mL (≈ 541 µM)
- Papp A→B (P-gp (human MDR1) [18]): 122 ×10⁻⁶ cm/s
- IC50 (Cytochrome P450 2C9): 42 µM
- CL (Liver [19]): 1.6 mL/min/g
- solubility at 0.5 h [20]: > 1000 µg/mL
- IC50 (Cytochrome P450 2C19): 87 µM
- efflux ratio (P-gp (human MDR1) [21]): 1.6
- CL (Liver microsomes [7]): 1.2 mL/min/g

SMILES: CCC(=O)c1nc2cc(C(=O)N[C@H](CC)c3ccccc3)ccc2n1Cc1ccc(Cl)c(Cl)c1
- EC50 [1]: 79.4 nM
- Activity [2]: 75%

SMILES: CC[C@@H](NC(=O)c1ccc2c(c1)ncn2Cc1ccccc1F)c1ccccc1
- EC50 [1]: 7.94 nM
- Activity [2]: 80%

SMILES: Cc1nc2cc(C(=O)N[C@@H](C)c3ccccc3)ccc2n1Cc1ccc(Cl)c(Cl)c1
- EC50 [1]: 631 nM
- Activity [2]: 50%

SMILES: CC[C@@H](NC(=O)c1ccc2c(c1)ncn2Cc1ccc(Cl)cc1F)c1ccccc1
- EC50 [1]: 0.794 nM
- Activity [2]: 74%

SMILES: CC[C@@H](NC(=O)c1ccc2c(c1)nc(C(C)C)n2Cc1ccc(Cl)c(Cl)c1)c1ccccc1
- EC50 [1]: 398 nM
- Activity [2]: 42%

SMILES: CC[C@@H](NC(=O)c1ccc2c(c1)ncn2Cc1ccncc1)c1ccccc1
- EC50 [1]: 794 nM
- Activity [2]: 63%

SMILES: CC[C@@H](NC(=O)c1ccc2c(c1)nc(C(F)(F)F)n2Cc1ccc(Cl)c(Cl)c1)c1ccccc1
- EC50 [1]: 251 nM
- Activity [2]: 60%

SMILES: CC[C@@H](NC(=O)c1ccc2c(c1)nc(C1CC1)n2Cc1ccc(Cl)c(Cl)c1)c1ccccc1
- EC50 [1]: 126 nM
- Activity [2]: 58%

SMILES: CC[C@@H](NC(=O)c1ccc2c(c1)nc(C)n2Cc1ccccc1Cl)c1ccccc1
- EC50 [1]: 50.1 nM
- Activity [2]: 80%
